Source: US7659284B2, “Thiazolopyridine kinase inhibitors” (Janssen Pharmaceutica NV, priority 2004, dated 2010)

biological target: T1, EGFR (Homo sapiens, UniProt P00533); test: EGFR Kinase Assay (GST-EGFR, 33P-ATP, Streptavidin Flashplate); type: biochemical; details: GST-EGFR intracellular portion, 5 μM ATP
T1 construct: started at nucleotide 2189 (corresponding to amino acid 667) and ended at the termination codon; made in house; host or cells: Sf9 insect cells (baculovirus)
Description: The EGFR kinase used was a fusion of Glutathione-S-Transferase (GST) and a PCR amplified intracellular portion of EGFR (NM_005228). The intracellular portion of EGFR started at nucleotide 2189 (corresponding to amino acid 667) and ended at the termination codon. The portion was PCR amplified with primers that added the lambda attB sequences to each end, recombined into an entry vector, then into a GST destination vector (as described in Gateway Technologies Manual by Invitrogen Corporation, Carlsbad, Calif.).
The destination vector was recombined in the DH10BAC strain of bacteria to produce a bacmid. The bacmid was transfected into Sf 9 cells and the supernatant containing the baculovirus was collected. The GSTEGFR protein was purified using large cultures of Sf 9 cells infected with stock virus. After an appropriate period of time, the cells were collected and lysed. The GSTEGFR was then purified from the lysate on Glutathione-Sepharose columns (as described by Amersham Biosciences, Buckinghamshire, United Kingdom).
The EGFR substrate was prepared by biotinylating polyGluTyr (128 mg) (Sigma, St. Louis, Mo.) in a 1×PBS buffer incubated together with a 12-fold molar excess of Sulfo-NHS-LC-Biotin on ice for at least 2 hrs. The free biotin was separated from the biotinylated polyGluTyr on a gel filtration column.
A mixture of a 10× kinase buffer (500 mM Tris at pH 8.0, 100 mM Magnesium Chloride and 1 mM Sodium Vanadate), DTT (1 mM final from 500 mM stock), ATP (5 μM final from 10 mM stock), biotinylated polyGluTyr (10 μg/μL stock), γ-^33P ATP (10 μCi/μL stock) and water was added to each well (90 μL/well) of a Streptavidin Flashplate (Perkin Elmer, Wellesley, Mass.).
Test compound in 100% DMSO (2 μL) was added to the appropriate wells. Diluted GSTEGFR (1:300 dilution in 50 mM Tris at pH 8.0 and 0.1% bovine serum albumin) (10 μL) was added to the wells to initiate the reactions.
The plates were incubated at 30° C. for 1 hr with shaking. The reacted contents were removed and the plates were sequentially washed three times with a 1×PBS stop buffer (300 μL without Magnesium and Calcium) and 100 mM EDTA. After the final wash, the same stop buffer (200 μL) was added to the wells. The plates were then sealed and read on the TopCount scintillation counter.
Test compounds were assayed in triplicate at 16 concentrations at half-log dilutions starting at 200 uM. A maximum and minimum signal for the assay was determined on each plate. The percent inhibition of a test compound was calculated accord to the formula
For a series of test concentrations, the IC50 was derived by graphing percent inhibition against the log of the concentrations tested for a given compound. For those compounds without an IC50, the percent inhibition results are shown at a test concentration of 2 μM.

T1 sequence (P00533 667-1210 limits assumed): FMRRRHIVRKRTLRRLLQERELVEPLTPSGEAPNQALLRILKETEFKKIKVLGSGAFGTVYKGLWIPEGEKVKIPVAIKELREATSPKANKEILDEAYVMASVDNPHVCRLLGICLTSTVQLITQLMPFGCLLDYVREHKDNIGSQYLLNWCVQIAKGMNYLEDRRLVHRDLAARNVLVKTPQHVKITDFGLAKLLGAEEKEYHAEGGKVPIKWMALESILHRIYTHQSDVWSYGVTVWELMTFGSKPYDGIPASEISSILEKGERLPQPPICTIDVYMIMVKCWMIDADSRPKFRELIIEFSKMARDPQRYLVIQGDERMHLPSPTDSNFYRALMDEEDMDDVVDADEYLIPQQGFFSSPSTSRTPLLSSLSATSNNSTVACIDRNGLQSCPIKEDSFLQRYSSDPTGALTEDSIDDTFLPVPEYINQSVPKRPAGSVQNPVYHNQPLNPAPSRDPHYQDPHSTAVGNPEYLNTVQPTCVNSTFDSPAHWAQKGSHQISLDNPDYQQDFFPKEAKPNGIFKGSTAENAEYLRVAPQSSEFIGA

IC50 | Structure (SMILES)
0.207 µM | N#Cc1cnc2nc(Nc3ccc(O)nc3)sc2c1Nc1ccc(F)c(Cl)c1 [Cpd 27, 7-(3-chloro-4-fluoro-phenylamino)-2-(6-hydroxy-pyridin-3-ylamino)-thiazolo[4,5-b]pyridine-6-carbonitrile]
2.63 µM | N#Cc1cnc2nc(NCCCN3CCOCC3)sc2c1Nc1ccc(F)c(Cl)c1 [Cpd 8, 7-(3-chloro-4-fluoro-phenylamino)-2-(3-morpholin-4-yl-propylamino)-thiazolo[4,5-b]pyridine-6-carbonitrile]
2.63 µM | C#Cc1cccc(Nc2c(C#N)cnc3nc(NCCCN4CCOCC4)sc23)c1 [Cpd 9, 7-(3-ethynyl-phenylamino)-2-(3-morpholin-4-yl-propylamino)-thiazolo[4,5-b]pyridine-6-carbonitrile]
0.0293 µM | CN(Cc1ccc(Nc2nc3ncc(C#N)c(Nc4ccc(F)c(Cl)c4)c3s2)cc1)C[C@H]1CCCO1 [Cpd 14, 7-(3-chloro-4-fluoro-phenylamino)-2-[(4-{methyl-[(2R)-tetrahydro-furan-2-ylmethyl]-amino}-methyl)-phenylamino]-thiazolo[4,5-b]pyridine-6-carbonitrile]
0.0764 µM | CN(Cc1ccc(Nc2nc3ncc(C#N)c(Nc4ccc(F)c(Cl)c4)c3s2)cc1)C1CCOCC1 [Cpd 16, 7-(3-chloro-4-fluoro-phenylamino)-2-(4-{[methyl-(tetrahydro-pyran-4-yl)-amino]-methyl}-phenylamino)-thiazolo[4,5-b]pyridine-6-carbonitrile]
0.078 µM | N#Cc1cnc2nc(Nc3ccc(CN4CCOCC4)cc3)sc2c1Nc1ccc(F)c(Cl)c1 [Cpd 2, 7-(3-chloro-4-fluoro-phenylamino)-2-(4-morpholin-4-ylmethyl-phenylamino)-thiazolo[4,5-b]pyridine-6-carbonitrile]
0.0285 µM | N#Cc1cnc2nc(Nc3ccc(S(=O)(=O)NCCN4CCOCC4)cc3)sc2c1Nc1ccc(F)c(Cl)c1 [Cpd 7, 4-[7-(3-chloro-4-fluoro-phenylamino)-6-cyano-thiazolo[4,5-b]pyridin-2-ylamino]-N-(2-morpholin-4-yl-ethyl)-benzenesulfonamide]
0.053 µM | N#Cc1cnc2nc(Nc3ccc(CN4CCC[C@H]4CO)cc3)sc2c1Nc1ccc(F)c(Cl)c1 [Cpd 6, 7-(3-chloro-4-fluoro-phenylamino)-2-{4-[(2S)-2-hydroxymethyl-pyrrolidin-1-ylmethyl]-phenylamino}-thiazolo[4,5-b]pyridine-6-carbonitrile]
3.28 µM | C#Cc1cccc(Nc2c(C#N)cnc3nc(NCCN4CCOCC4)sc23)c1 [Cpd 13, 7-(3-ethynyl-phenylamino)-2-(2-morpholin-4-yl-ethylamino)-thiazolo[4,5-b]pyridine-6-carbonitrile]
1.45 µM | N#Cc1cnc2nc(Nc3ccc(CN4CCOCC4)cc3)sc2c1Nc1ccc(Cl)cc1Cl [Cpd 34, 7-(2,4-dichloro-phenylamino)-2-(4-morpholin-4-ylmethyl-phenylamino)-thiazolo[4,5-b]pyridine-6-carbonitrile]
0.0446 µM | N#Cc1cnc2nc(Nc3ccc(CNC[C@H]4CCCO4)cc3)sc2c1Nc1ccc(F)c(Cl)c1 [Cpd 21, 7-(3-chloro-4-fluoro-phenylamino)-2-[4-({[(2R)-tetrahydro-furan-2-ylmethyl]-amino}-methyl)-phenylamino]-thiazolo[4,5-b]pyridine-6-carbonitrile]
0.0696 µM | N#Cc1cnc2nc(Nc3ccc(NCCCN4CCOCC4)nc3)sc2c1Nc1ccc(F)c(Cl)c1 [Cpd 29, 7-(3-chloro-4-fluoro-phenylamino)-2-[6-(3-morpholin-4-yl-propylamino)-pyridin-3-ylamino]-thiazolo[4,5-b]pyridine-6-carbonitrile]
0.0226 µM | CCc1nccn1Cc1ccc(Nc2nc3ncc(C#N)c(Nc4ccc(F)c(Cl)c4)c3s2)cc1 [Cpd 1, 7-(3-chloro-4-fluoro-phenylamino)-2-[4-(2-ethyl-imidazol-1-ylmethyl)-phenylamino]-thiazolo[4,5-b]pyridine-6-carbonitrile]
0.853 µM | N#Cc1cnc2nc(NCc3ccc(CN4CCOCC4)cc3)sc2c1Nc1ccc(F)c(Cl)c1 [Cpd 22, 7-(3-chloro-4-fluoro-phenylamino)-2-(4-morpholin-4-ylmethyl-benzylamino)-thiazolo[4,5-b]pyridine-6-carbonitrile]
0.158 µM | COc1ccc(Nc2nc3ncc(C#N)c(Nc4ccc(F)c(Cl)c4)c3s2)cn1 [Cpd 26, 7-(3-chloro-4-fluoro-phenylamino)-2-(6-methoxy-pyridin-3-ylamino)-thiazolo[4,5-b]pyridine-6-carbonitrile]
0.0637 µM | COCCN(CCOC)S(=O)(=O)c1ccc(Nc2nc3ncc(C#N)c(Nc4ccc(F)c(Cl)c4)c3s2)cc1 [Cpd 5, 4-[7-(3-chloro-4-fluoro-phenylamino)-6-cyano-thiazolo[4,5-b]pyridin-2-ylamino]-N,N-bis-(2-methoxy-ethyl)-benzenesulfonamide]
0.0604 µM | N#Cc1cnc2nc(Nc3ccc(CN4CCC(N)CC4)cc3)sc2c1Nc1ccc(F)c(Cl)c1 [Cpd 31, 2-[4-(4-amino-piperidin-1-ylmethyl)-phenylamino]-7-(3-chloro-4-fluoro-phenylamino)-thiazolo[4,5-b]pyridine-6-carbonitrile]
0.0795 µM | N#Cc1cnc2nc(Nc3ccc(CN4CCOCC4)cc3)sc2c1Nc1cccc(Cl)c1 [Cpd 19, 7-(3-chloro-phenylamino)-2-(4-morpholin-4-ylmethyl-phenylamino)-thiazolo[4,5-b]pyridine-6-carbonitrile]
0.0761 µM | CN(Cc1ccc(Nc2nc3ncc(C#N)c(Nc4ccc(F)c(Cl)c4)c3s2)cc1)C[C@@H]1CCCO1 [Cpd 15, 7-(3-chloro-4-fluoro-phenylamino)-2-[(4-{methyl-[(2S)-tetrahydro-furan-2-ylmethyl]-amino}-methyl)-phenylamino]-thiazolo[4,5-b]pyridine-6-carbonitrile]
0.0857 µM | CN(C)Cc1ccc(Nc2nc3ncc(C#N)c(Nc4ccc(F)c(Cl)c4)c3s2)cc1Cl [Cpd 18, 2-(3-chloro-4-dimethylaminomethyl-phenylamino)-7-(3-chloro-4-fluoro-phenylamino)-thiazolo[4,5-b]pyridine-6-carbonitrile]
0.0437 µM | CN(C)Cc1ccc(Nc2nc3ncc(C#N)c(Nc4ccc(F)c(Cl)c4)c3s2)cc1 [Cpd 3, 7-(3-chloro-4-fluoro-phenylamino)-2-(4-dimethylaminomethyl-phenylamino)-thiazolo[4,5-b]pyridine-6-carbonitrile]
0.327 µM | N#Cc1cnc2nc(Nc3ccc(Cl)nc3)sc2c1Nc1ccc(F)c(Cl)c1 [Cpd 28, 7-(3-chloro-4-fluoro-phenylamino)-2-(6-chloro-pyridin-3-ylamino)-thiazolo[4,5-b]pyridine-6-carbonitrile]
0.0417 µM | C#Cc1cccc(Nc2c(C#N)cnc3nc(Nc4ccc(CN5CCC[C@H]5CO)cc4)sc23)c1 [Cpd 11, 7-(3-ethynyl-phenylamino)-2-{4-[(2S)2-hydroxymethyl-pyrrolidin-1-ylmethyl]-phenylamino}-thiazolo[4,5-b]pyridine-6-carbonitrile]
0.0677 µM | N#Cc1cnc2nc(Nc3ccc(NCCN)nc3)sc2c1Nc1ccc(F)c(Cl)c1 [Cpd 30, 2-[6-(2-amino-ethylamino)-pyridin-3-ylamino]-7-(3-chloro-4-fluoro-phenylamino)-thiazolo[4,5-b]pyridine-6-carbonitrile]
